Data from US20250296929A1, “NOVEL HEPATOSELECTIVE POLYADENYLATING POLYMERASES INHIBITORS AND THEIR METHOD OF USE” (BARUCH S. BLUMBERG INSTITUTE, priority 2021, published 2025).
Several values for one entry are separate records, joined by “and”; a condition that tells them apart may be missing. Equal entries are not always repeated. Where two headings read alike, the source gives them in different places.

How the values were obtained:
[1] = Liver distribution after 8 mg/kg oral dose (liver vs plasma); type: in vivo, CD1 mice
Procedure: (§1) Protocol for pharmacokinetic and tissue distribution studies. The pharmacokinetics of the compounds was studied in CD1 mice after intravenous (IV) and oral gavage (PO) administration. Mouse PK studies was conducted at 3 mg/kg (IV) and 8 mg/kg (PO). Plasma samples obtained from dosed animals, at ten time points, including 5, 15 and 30 minutes and 1, 1.5, 2, 4, 6, 8 and 24 hr post-dose for processing to plasma, were prepared for analysis by means of a single step protein precipitation technique, by adding 200 μL of acetonitrile containing an IS mixture (labetalol, imipramine and diclofenac) to 50 μL aliquots of individual subject samples. Samples were mixed by vortex for homogeneity and then subjected to centrifugation at 4000 rpm for 10 min. The supernatant (200 μL) was collected and injected into the LC-MS/MS for analysis. Pharmacokinetic parameters will be calculated using established non-compartmental methods. The liver distribution of the compounds was studied in the PO group and liver tissues were collected at each time point after PO administration. Accurately weighed whole liver tissues were collected in a 50 mL tube, and 3 volumes per weight of water will be added. Tissue samples were homogenized and 50 μL of the homogenates will be processed along with plasma samples as described above.

OATP1B1 = target: T1, OATP1B1 (Homo sapiens, UniProt Q9Y6L6); assay: OATP1B1 transporter substrate uptake in OATP1B1-HEK293 cells; type: in vitro ADME; details: test concentration 1 μM
T1 construct: expressed in transfected cells; host or cells: HEK293
T1 sequence (Q9Y6L6 1-691): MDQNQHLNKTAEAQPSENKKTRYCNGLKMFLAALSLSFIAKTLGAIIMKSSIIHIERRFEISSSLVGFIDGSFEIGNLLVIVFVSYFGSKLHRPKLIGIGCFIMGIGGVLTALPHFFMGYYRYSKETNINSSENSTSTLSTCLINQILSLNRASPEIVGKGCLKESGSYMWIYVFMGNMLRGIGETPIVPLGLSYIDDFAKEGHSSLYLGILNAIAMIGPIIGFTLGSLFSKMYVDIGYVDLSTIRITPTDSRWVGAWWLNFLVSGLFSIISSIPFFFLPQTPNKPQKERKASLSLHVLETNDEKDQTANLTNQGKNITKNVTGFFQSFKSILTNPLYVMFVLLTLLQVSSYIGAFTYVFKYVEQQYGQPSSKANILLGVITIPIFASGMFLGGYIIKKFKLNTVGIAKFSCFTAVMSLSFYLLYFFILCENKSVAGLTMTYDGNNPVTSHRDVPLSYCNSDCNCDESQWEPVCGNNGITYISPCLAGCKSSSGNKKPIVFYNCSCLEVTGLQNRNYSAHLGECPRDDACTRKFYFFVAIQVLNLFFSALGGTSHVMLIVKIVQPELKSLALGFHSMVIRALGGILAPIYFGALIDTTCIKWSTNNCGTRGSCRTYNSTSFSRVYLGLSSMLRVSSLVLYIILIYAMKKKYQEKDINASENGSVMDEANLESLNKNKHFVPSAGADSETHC

[2] = Pharmacokinetics after 8 mg/kg oral (PO) administration, plasma; type: in vivo, CD1 mice; design: AUClast/D: unit not given here
Procedure: as §1

[3] = CD1, mouse, plasma, 8 mg/kg oral, mean

COc1cc2c(cc1OCCCCCCC(=O)O)C[C@@H](C(C)C)n1cc(C(=O)O)c(=O)cc1-2 [Example 6, (S)-9-((6-carboxyhexyl)oxy)-6-isopropyl-10-methoxy-2-oxo-6,7-dihydro-2H-pyrido[2,1-a]isoquinoline-3-carboxylic acid]
Liver concentration ([1]; 0.25 h, individual animals): 428 ng/g and 372 ng/g and 199 ng/g | Ratio (liver/plasma) ([1]; 0.25 h, individual animals): 41.6 and 19.1 and 10.8 | Liver concentration ([1]; 0.5 h, individual animals): 241 ng/g and 321 ng/g | Ratio (liver/plasma) ([1]; 0.5 h, individual animals): 24.3 and 35.6 | Liver concentration ([1]; 1 h, individual animals): 237 ng/g and 404 ng/g | Ratio (liver/plasma) ([1]; 1 h, individual animals): 39.9 and 43.6 | Liver concentration ([1]; 2 h, individual animals): 377 ng/g and 299 ng/g and 108 ng/g | Ratio (liver/plasma) ([1]; 2 h, individual animals): 65.8 and 47.3 | Liver concentration ([1]; 4 h, individual animals): 128 ng/g and 179 ng/g | Ratio (liver/plasma) ([1]; 4 h, individual animals): 42.2 and 43.5 | Liver concentration ([1]; 6 h, individual animals): 130 ng/g and 43.2 ng/g and 55.6 ng/g | Ratio (liver/plasma) ([1]; 6 h, individual animals): 28.2 and 23.0 | Liver concentration ([1]; 8 h, individual animals): 106 ng/g and 37.6 ng/g and 45.6 ng/g | Ratio (liver/plasma) ([1]; 8 h, individual animals): 17.8 | concentration at 0.5 h ([1]; CD1, mouse, liver, oral, 8 mg/kg, 0.5 h, individual animals): 366 ng/g | concentration at 1 h ([1]; CD1, mouse, liver, oral, 8 mg/kg, 1 h, individual animals): 259 ng/g | concentration at 4 h ([1]; CD1, mouse, liver, oral, 8 mg/kg, 4 h, individual animals): 106 ng/g | Kp at 0.25 h ([1]; CD1, mouse, liver/plasma, oral, 8 mg/kg, 0.25 h, mean, read-out: Ratio (liver/plasma) Mean): 23.8 | Kp at 0.5 h ([1]; CD1, mouse, liver/plasma, oral, 8 mg/kg, 0.5 h, individual animals, read-out: Ratio (liver/plasma)): 38.9 | Kp at 0.5 h ([1]; CD1, mouse, liver/plasma, oral, 8 mg/kg, 0.5 h, mean, read-out: Ratio (liver/plasma) Mean): 32.9 | Kp at 1 h ([1]; CD1, mouse, liver/plasma, oral, 8 mg/kg, 1 h, individual animals, read-out: Ratio (liver/plasma)): 63.1 | Kp at 1 h ([1]; CD1, mouse, liver/plasma, oral, 8 mg/kg, 1 h, mean, read-out: Ratio (liver/plasma) Mean): 48.9 | Kp at 2 h ([1]; CD1, mouse, liver/plasma, oral, 8 mg/kg, 2 h, individual animals, read-out: Ratio (liver/plasma)): 69.6 | Kp at 2 h ([1]; CD1, mouse, liver/plasma, oral, 8 mg/kg, 2 h, mean, read-out: Ratio (liver/plasma) Mean): 60.9 | Kp at 4 h ([1]; CD1, mouse, liver/plasma, oral, 8 mg/kg, 4 h, individual animals, read-out: Ratio (liver/plasma)): 28.9 | Kp at 4 h ([1]; CD1, mouse, liver/plasma, oral, 8 mg/kg, 4 h, mean, read-out: Ratio (liver/plasma) Mean): 38.2 | Kp at 6 h ([1]; CD1, mouse, liver/plasma, oral, 8 mg/kg, 6 h, individual animals, read-out: Ratio (liver/plasma)): 45.6 | Kp at 6 h ([1]; CD1, mouse, liver/plasma, oral, 8 mg/kg, 6 h, mean, read-out: Ratio (liver/plasma) Mean): 32.3 | Kp at 8 h ([1]; CD1, mouse, liver/plasma, oral, 8 mg/kg, 8 h, individual animals, read-out: Ratio (liver/plasma)): 15.9 | Kp at 8 h ([1]; CD1, mouse, liver/plasma, oral, 8 mg/kg, 8 h, mean, read-out: Ratio (liver/plasma) Mean): 16.8 | Uptake Ratio (−/+Inhibitor) (OATP1B1; OATP1B1-HEK293 cells, inhibitor Rifamycin SV): 11.17 | Uptake Ratio (Transporter(−Inhibitor)/Mock(−Inhibitor)) (OATP1B1; OATP1B1-HEK293 vs Mock (normal HEK293)): 18.99 | F ([2]; 8 mg/kg oral vs 3 mg/kg IV, mean): 5.09% | Plasma concentration ([2]; 8 mg/kg oral, 0.25 h, individual animals): 10.3 ng/mL and 19.5 ng/mL and 18.4 ng/mL | Plasma concentration ([2]; 8 mg/kg oral, 0.5 h, individual animals): 9.93 ng/mL and 9.00 ng/mL and 9.40 ng/mL | Plasma concentration ([2]; 8 mg/kg oral, 1 h, individual animals): 4.10 ng/mL and 5.94 ng/mL and 9.27 ng/mL | Plasma concentration ([2]; 8 mg/kg oral, 2 h, individual animals): 5.41 ng/mL and 4.55 ng/mL and 2.29 ng/mL | Plasma concentration ([2]; 8 mg/kg oral, 4 h, individual animals): 3.03 ng/mL and 4.12 ng/mL and 3.68 ng/mL | Plasma concentration ([2]; 8 mg/kg oral, 6 h, individual animals): 1.53 ng/mL and 2.42 ng/mL and 2.85 ng/mL | Plasma concentration ([2]; 8 mg/kg oral, 8 h, individual animals): 6.65 ng/mL and 2.11 ng/mL and BLOQ | Plasma concentration ([2]; 8 mg/kg oral, 24 h, individual animals): BLOQ | AUClast/D ([2]; 8 mg/kg oral, mean): 4.33 | concentration at 0.25 h ([2]; CD1, mouse, plasma, oral, 8 mg/kg, 8 mg/kg oral, 0.25 h, individual animals, read-out: Plasma concentration): 18.4 ng/mL | concentration at 0.25 h ([2]; CD1, mouse, plasma, oral, 8 mg/kg, 8 mg/kg oral, 0.25 h, mean, read-out: Mean plasma concentration): 16.1 ng/mL | concentration at 0.5 h ([2]; CD1, mouse, plasma, oral, 8 mg/kg, 8 mg/kg oral, 0.5 h, individual animals, read-out: Plasma concentration): 9.4 ng/mL | concentration at 0.5 h ([2]; CD1, mouse, plasma, oral, 8 mg/kg, 8 mg/kg oral, 0.5 h, mean, read-out: Mean plasma concentration): 9.44 ng/mL | concentration at 1 h ([2]; CD1, mouse, plasma, oral, 8 mg/kg, 8 mg/kg oral, 1 h, mean): 6.44 ng/mL | concentration at 2 h ([2]; CD1, mouse, plasma, oral, 8 mg/kg, 8 mg/kg oral, 2 h, mean): 4.08 ng/mL | concentration at 4 h ([2]; CD1, mouse, plasma, oral, 8 mg/kg, 8 mg/kg oral, 4 h, individual animals, read-out: Plasma concentration): 3.68 ng/mL | concentration at 4 h ([2]; CD1, mouse, plasma, oral, 8 mg/kg, 8 mg/kg oral, 4 h, mean, read-out: Mean plasma concentration): 3.61 ng/mL | concentration at 6 h ([2]; CD1, mouse, plasma, oral, 8 mg/kg, 8 mg/kg oral, 6 h, individual animals, read-out: Plasma concentration): 2.85 ng/mL | concentration at 6 h ([2]; CD1, mouse, plasma, oral, 8 mg/kg, 8 mg/kg oral, 6 h, mean, read-out: Mean plasma concentration): 2.27 ng/mL | concentration at 8 h ([2]; CD1, mouse, plasma, oral, 8 mg/kg, 8 mg/kg oral, 8 h, mean): 4.38 ng/mL | AUC(0-t) [2, 3]: 34.7 ng·h/mL | Cmax [2, 3]: 16.1 ng/mL | Tmax [2, 3]: 15 min
